Assay results published in patent US20230032623A1, “Tumor-on-a-chip” (NEW YORK UNIVERSITY, priority 2021, published 2023).
“Also recorded” adds a separate entry of the source.

Tests used:
Type in all cases: cell-based, human
[1] = test system: allogeneic CD8+ T-cells; assay: CD8+ T-cell activation analysis (CD154 expression) in GBM-on-a-Chip; details: BLZ945 0.1 μg/ml, nivolumab 1 μg/ml, mono or dual, 3 days
Protocol: To characterize the expression of surface marks on GBM cell, CD8+ T-cell and TAM, cells were firstly recovered with Corning Cell Recovery Solution (Corning, N.Y., USA) from the brain tissue-mimicking hydrogel. Briefly, cell culture medium was aspirated, and the microfluidics chip was rinsed with cold 1× PBS twice, 10 min per round. PDMS slabs were detached from the cover glass in the microfluidics chip, followed by incubation with Corning Cell Recovery Solution on ice for 30 min. With gently pipetting the channel containing cells, the cell suspension was centrifuged, washed with cold 1 x PBS twice and then resuspended in 5% BSA blocking buffer. All cell samples were fixed in 4% paraformaldehyde (PFA) (Sigma-Aldrich) for 10 min at room temperature. […] To quantify PD-1 expression on CD8+ T-cell, cells were first incubated with PD-1 primary antibody (367402, Biolegend) for 1 hr, and then visualized with Alexa Fluor 488 conjugated goat anti-mouse IgG secondary antibodies (Invitrogen, 5 μg/mL). […] PD-1 and CD154 expressions on CD8+ T-cell, PD-L1 and CD163 expressions on macrophage were quantified based on the mean florescent intensity of cell staining using ImageJ (NIH). Alternatively, ratios of CD154+ or CD163+-cells were calculated relative to CD8+ cells or CD68+ cells, respectively. […]

[2] = test system: allogeneic CD8+ T-cells; assay: Allogeneic CD8+ T-cell extravasation/infiltration across brain microvessels in GBM-on-a-Chip; details: BLZ945 0.1 μg/ml, nivolumab 1 μg/ml, mono or dual, every 24 hr for 3 days, PN, CL, MES GBM
Protocol: (§1) Patient-derived GBM cells were firstly dissociated with Accutase (Innovative Cell Technologies), and then labeled with CellTracker Red (5 μM, C34552, Thermo Fisher-Scientific) as per the manufacturer's instructions. TAMs and GBM cells were then mixed with a number ratio of 1:2 at a cell density of 1×10^8 cells/mL in the brain tissue-mimicking hydrogel. The final cell numbers of GBM and TAMs were about 1×10^5 cells per chip. […] Hydrogel solution was then quickly flushed into the hydrogel loading channel, and then incubated in an incubator at 37° C. and 5% CO2 for 30 min for complete gelation. After incubation, the media infusion channel and the vascular-seeding channel was flushed with fresh cell culture media for 2 hr. HBMVECs labeled with DiD (5 μM, V22887, Thermo Fisher-Scientific) were seeded into the vascular-seeding channel at a density of 5×10^6 cells/mL, and incubated at 37° C. and 5% CO2 overnight with fresh cell culture media. To form the vascular lumens, the microfluidic chip was flipped every 15 mins for 2 hr to let HBMVECs to uniformly attach to the vascular-seeding channel. After 24 hr′ incubation, IL-2 activated allogeneic CD8+ T-cells were firstly labeled with CellTracker Green (5 μM, C2925, Thermo Fisher-Scientific) and loaded into the vascular channel at a total cell number of 1×10^6 cells per chip. After culture in the incubator for 1-3 days, live cell images of different cell compartments were captured by an inverted fluorescent microscope (Zeiss Axio Observer.Z1).
Infiltrated CD8+ T-cells were defined as the CD8+ T-cells migrating out of vascular lumens. To quantify the migration behaviors of those CellTracker Green-labeled allogeneic CD8+ T-cells, time-lapsed image stacks were acquired every minute for 2 hr and at least three positions in each microfluidic chip. The cell centroids at different time points of the same cell were then used to calculate the cell migration speed and linked up to represent the migration trajectories by using ImageJ (NIH). The mean migration speeds were then averaged for all infiltrated cells. […]

[3] = test system: patient-derived GBM cells; assay: Quantification of GBM cell apoptosis (caspase-3/7 activation) in GBM-on-a-Chip; details: BLZ945 0.1 μg/ml, nivolumab 1 μg/ml, mono or dual; for GBM cell apoptosis with presence of microglia versus macrophage only system: HMC3 microglia present, PN, CL, MES GBM
Protocol: as §1
To examine the apoptosis of GBM cells in the microfluidic model, CellEvent Caspase-3/7 Green Detection Reagent (R37111, Thermo Fisher-Scientific) and Hoechst 33342 (5 μg/mL; H3570, Thermo Fisher-Scientific) were used to distinguish the apoptotic cells that with activated caspase-3/7 with bright green nuclei. […] The ratio of apoptotic GBM cells were calculated as the number of cells with green nuclei to the total number of GBM cells that were stained with CellTracker Red (5 μM, C34552, Thermo Fisher-Scientific). […]

[4] = test system: tumor-associated macrophages (TAMs); assay: CD163 (M2-like marker) expression on TAM in GBM-on-a-Chip, immunostaining and qPCR
Protocol: U937 monocytes were polarized into macrophages with treatments of 5 nM PMA (Sigma-Aldrich) for 24 hr (Shi Y et al., Nature communications. 2017 Jun. 1; 8(1):1-7). Biomimetic TAMs (CD68+CD163+) were obtained by culturing U937-derived macrophages in complete culture media supplemented with supernatants of patient-derived GBM cells (5×10^5 cells/mL) which were collected after 3 days' culture and centrifuged at 2000×g for 10 min at 4° C. to remove cell debris. Cryopreserved human PBMCs (10HU-003, iXCells Biotechnologies) were thawed and cultured in RPMI-1640 medium (Gibco) supplemented with 10% FBS (Gibco) and 1% penicillin/streptomycin (Gibco) overnight before sorting for CD8+ T-cells. Allogeneic CD8+ T-cells were isolated from PBMCs via negative selection using MojoSort Human CD8 T-Cell Isolation Kit (MojoSort, 480011, Biolegend) as per the manufacturer's protocol (FIG. 7A through FIG. 7D). […]
To characterize the expression of surface marks on GBM cell, CD8+ T-cell and TAM, cells were firstly recovered with Corning Cell Recovery Solution (Corning, N.Y., USA) from the brain tissue-mimicking hydrogel. […] To quantify PD-1 expression on CD8+ T-cell, cells were first incubated with PD-1 primary antibody (367402, Biolegend) for 1 hr, and then visualized with Alexa Fluor 488 conjugated goat anti-mouse IgG secondary antibodies (Invitrogen, 5 μg/mL). […]

[5] = test system: PD-L1; assay: qPCR analysis of PD-L1 expression in TAM and GBM cell
Protocol: Control groups were treated with fresh cell culture media supplemented with DMSO (0.01%) and human IgG4 isotype control antibody (1 μg/mL, BioLegend). Fresh cell culture media supplemented anti-PD-1 and anti-CSF-1R antibodies was loaded in the microfluidic channels 2 hr after loading allogeneic CD8+ T-cells. Blocking media was freshly prepared and replenished every 24 hr for 3 days.
RNA was extracted using RNeasy Plus Mini Kit (Qiagen, US), and cDNA was synthesized from the mRNA using SuperScript IV VILO Master Mix for RT-RCR (Invitrogen, US), followed by real-time PCR using a SYBR Green PCR Master Mix (Thermo Fisher Scientific, US) and QuantStudio six sequence detection system (Applied Biosystems, Thermo Fisher Scientific). The reactions were performed with the following cycling conditions: 95° C. for 10 min followed by 40 cycles of 95° C. for 15 s and 60° C. for 1 min. GAPDH was used as a housekeeping gene for normalization. All experiments were repeated three times. The relative change in gene expression was analyzed with the 2^−ΔΔCT method. […]

nivolumab: human IgG4 anti-PD-1 monoclonal antibody; PD-1 blockade
CD8+ T-cell activation (CD154 expression, CD154+CD8+ T-cells) [1]: did enhance CD8+T-cell activation in the PN and MES GBMs | Allogeneic CD8+ T-cell extravasation / infiltrated CD8+ T-cells [2]: did not increase the extravasation of allogeneic CD8+ T-cell | GBM cell apoptosis with presence of microglia versus macrophage only system [3]: no significant difference with the GBM and macrophage only condition

CNC(=O)c1cc(Oc2ccc3nc(N[C@@H]4CCCC[C@H]4O)sc3c2)ccn1 [BLZ945]
CD8+ T-cell activation (CD154 expression, CD154+CD8+ T-cells) [1]: did not significantly reverse the immunosuppression onto the cytotoxic CD8+ T-cell | M2-like marker CD163 expression on TAM / macrophage polarization toward M2 phenotype ([4]; BLZ945 0.1 μg/ml every 24 hr for 3 days, PN (GBML20), CL (GBML08), MES (GBML91) GBM subtypes): suppressed the polarization of macrophages toward an immunosuppressive M2 phenotype in all three GBM subtypes with more significant CD163 marker suppression in the CL and MES GBM subtypes relative to the PN GBM; also recorded: limited expression of CD163 in all GBM subtypes | CD163 expression in TAM by qPCR ([4]; BLZ945 0.1 μg/ml, qPCR): inhibition of CD163 expression in TAM | PD-L1 expression in TAM and GBM cells ([5]; BLZ945 0.1 μg/ml alone, qPCR): no significant change in PD-L1 expression for both TAM and GBM cells | mRNA expression of PD-L1 in GBM cell ([5]; BLZ945 0.1 μg/ml, GBM cells co-cultured with TAM): did not change the PD-L1 expression in GBM cells | Allogeneic CD8+ T-cell extravasation / infiltrated CD8+ T-cells [2]: can significantly enhance allogeneic CD8+ T-cell extravasation across brain microvessels | Allogeneic CD8+ T-cell extravasation / infiltrated CD8+ T-cells ([2]; listed as CSF-1R inhibitor): increased allogeneic CD8+ T-cell infiltration in the tumor | GBM cell apoptosis (caspase-3/7 activation) ([3]; 3 days, macrophage-only system): limited effect on tumor apoptosis | GBM cell apoptosis with presence of microglia versus macrophage only system [3]: no significant difference with the GBM and macrophage only condition
